In article PMC12648656, “Palladium(II) Complexes with Noncovalent Interactions with DNA: Solution Speciation Controlled by Solvent Identity, pH, and Concentration” (Inorganic Chemistry, 2025):

Tests used:
[1] = test system: calf thymus-DNA (CT-DNA); test: UV-vis titration with CT-DNA; assay type: binding; conditions: complex/DNA ratio 0 to 0.79; 5 mM Tris, 50 mM NaCl, pH 7.40, 25 °C
Experimental: To investigate the potential binding ability of the palladium complexes (2) and (3) with DNA, UV–vis titrations (240 to 700 nm) were performed at room temperature. During the titrations, the CT-DNA concentration (5.08 × 10^–5 M) was kept constant, while the concentration of each complex (0 to 2.00 × 10^–5 M) was varied. The changes in the typical absorbance of CT-DNA at 260 nm were monitored after equilibration (10 min) and after 1 h of incubation at 37 °C. […] Control experiments with DMSO were performed, and no changes in the CT-DNA spectrum were observed.

[2] = test system: pBR322 plasmid DNA; test: Agarose gel electrophoresis mobility shift; assay type: binding; conditions: r i 0.01 to 0.20, 24 h, 37 °C
Experimental: Complexes (2) and (3) were incubated at 37 °C with a concentration of 0.0625 μg/μL pBR322 plasmid DNA at different concentrations expressed as r i = complex:DNA (base pair) ratio. The r i used was from 0.01 to 0.20, in a total volume of 20 μL. After an incubation period of 24 h, the mobility of the complex-treated pBR322 samples was analyzed by gel electrophoresis at 70 V in Tris/acetate/EDTA buffer. A control of pBR322 was also incubated, and a 1 kb ladder aliquot was loaded into lane 1 of the gel. The gel was stained with an ethidium bromide aqueous solution, and DNA bands were visualized with a UV-transilluminator UVITEC Cambridge UVIDOC HD2 instrument. The studies were performed with 3% (v/v) DMSO as the final solution.

[3] = HPLC analysis of aqueous solution integrity; assay type: physicochemical; conditions: 20 μM in 3% DMSO aqueous solution, after 24 h, 254 nm
Experimental: Prior to the injection to the column, 20 μL was taken and diluted with 180 μL of HPLC-grade acetonitrile at various time points (t = 0 and 24 h). 20 μL of this diluted sample was injected in the Zorbax Eclipse Plus C18 column (4.6 × 100 mm, 3.5 μm): flow rate, 1 mL/min; detection, UV 254 nm; flow solvent system A/B (acetonitrile/water, v/v): 70:30 and analyzed with 254 nm radiation up to 10 min.

[4] = target: T1, hen egg white lysozyme (HEWL) (Gallus gallus, UniProt P00698); test: Reaction with lysozyme followed by UV-vis at 280 nm, pseudo-first-order kinetics; assay type: binding; conditions: metal:protein 3:1, 5 mM Tris/3% DMSO, 37 °C, absorbance at 280 nm
T1 construct: a model protein, namely HEWL (hen egg white lysozyme), was also studied; from tissue; host or cells: hen egg white (from the protein's name)
T1 sequence (P00698 19-147): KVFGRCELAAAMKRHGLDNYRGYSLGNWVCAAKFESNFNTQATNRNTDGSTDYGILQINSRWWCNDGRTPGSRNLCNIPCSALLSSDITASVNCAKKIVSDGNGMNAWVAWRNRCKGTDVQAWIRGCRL
Experimental: The interaction of complexes (2) and (3) with hen egg white lysozyme (HEWL) was investigated using a 10^–5 M solution of the protein. Lysozyme is a widely used model protein for studying the binding of potential metallodrugs. The sample preparation for this assay was carried out using the same protocol of the samples for the DNA interactions studies by UV–vis spectrophotometry. The integrity of the enzyme was checked in each experiment, with a comparison of fresh and incubated samples. UV–vis spectra were recorded before and after incubation with the complex (dissolved in 97% 5 mM Tris/3% DMSO) for 24 h at 37 °C. A metal to protein ratio of 3:1 was used for these studies, a ratio that affords similar results to 10:1 and eases the sample preparation. The experimental time-dependent profiles of the spectra were analyzed as pseudo-first-order reactions by plotting the variation of the absorbance as a function of time.

[5] = Stability and DMSO coordination in DMSO by 1H NMR; assay type: physicochemical
Experimental: (a) Complex (2) solutions in DMSO (D2O) investigated by NMR spectroscopy: Trying to investigate if the higher concentration is responsible for the complex transformation process in DMSO, we monitored the solution of complex (2) at 0.5 and 1 mM by ^1H NMR spectroscopy (Figure a). We could clearly see that complex (2) is only detected pure at a concentration of 0.5 mM.
NMR spectra were recorded at room temperature, using a two-channel 300 MHz Bruker Avance III-HD Nanobay spectrometer equipped with a 5 mm BBO 1H/X probe and Z gradients, located at the Interdepartmental Investigation Service (SIdI). DMSO-d 6 was used as the solvent (containing 0.05% (v/v) tetramethylsilane (TMS) as a reference). Chemical shift values are given in parts per million relative to the residual TMS signals. The following abbreviations were used: s (singlet), d (doublet), and m (multiplet). Elemental analyses were performed on a LECO CHNS-932 elemental analyzer located at SIdI. Mass spectra were recorded using FAB (fast atom bombardment) in a Waters VG AutoSpec mass spectrometry unit and using MALDI (matrix-assisted laser desorption/ionization) with a Bruker Ultraflex III (MALDI-TOF/TOF) mass spectrometry unit, both located at SIdI. Infrared (IR) spectra were recorded using a PerkinElmer Model 283 spectrometer with an attenuated total reflectance (ATR) MIRacle Single Reflection Horizontal accessory and equipped with CsI optical windows for spectra between 600 and 200 cm^–1 in Nujol mull preparations. Absorbance spectra were recorded using a Thermo Evolution 220 spectrophotometer to record the UV–visible region, equipped with temperature control within ±0.1 °C. Viscosity measurements were performed using an A&D SV-1A vibro viscometer. HPLC analyses were carried out utilizing a 1200 Infinity series HPLC system provided by Agilent Technologies coupled to a photodiode array detector.

[6] = test system: glutathione (GSH); test: Reaction with glutathione followed by UV-vis; conditions: 30-fold GSH, ~20 μM complex, 60% (v/v) DMSO/phosphate buffer pH 7.4, 25.0 °C
Experimental: Reactions between the title compounds and GSH were also followed by UV–vis spectrophotometry under an inert atmosphere to overcome oxidation of GSH by air oxygen. Samples contained the metal complexes at low concentrations (∼20 μM) and were prepared using 60% (v/v) DMSO/phosphate buffer solution (pH 7.4) to avoid precipitation. The reactants were separated in the pockets of a tandem cuvette, followed by deoxygenation by argon bubbling. The separate solutions were mixed at 1:30 metal complex:GSH molar ratios, and UV–vis spectra were recorded. Argon was continuously passed over the sample during the whole measurement.

## Clc1ccc(N=C2N[N+](=Cc3c[nH]cn3)[Pd-2]3([S]C(Nc4ccc(Cl)cc4)=N[N+]3=Cc3c[nH]cn3)[S]2)cc1 (centres unmarked) [(2), Bis(1H-imidazole-4-carboxaldehyde-4N-p-chlorophenylthiosemicarbazonato)palladium(II)]
[1]
  change of CT-DNA absorption at 260 nm: absorption values of DNA–complex samples increase
[2]
  effect on electrophoretic mobility of supercoiled pBR322 (pure form): small unwinding
[3]
  integral of the HPLC signal of intact complex: only slightly diminished
[4]
  observed rate constant k obs: (8.83 ± 0.05) × 10^–5 s^–1
[5]; 0.5 mM
  molar fraction of DMSO-coordinated species (complex (3)) formed: 0%
[5]; 3 mM, does not increase over 24 h
  molar fraction of DMSO-coordinated species (complex (3)) formed: 8%
[5]; in DMSO
  time 1H NMR spectrum remains stable: up to 24 h
[6]
  time to equilibrium of the reaction with GSH: ≤ 30 min
